The text below walks through data of patent US20040248898A1, “Remedies for arteriosclerosis” (priority 2001, published 2004).

The target in assay [1] is T1, human group X sPLA2 (Homo sapiens, UniProt O15496).
T1 sequence (O15496 43-165): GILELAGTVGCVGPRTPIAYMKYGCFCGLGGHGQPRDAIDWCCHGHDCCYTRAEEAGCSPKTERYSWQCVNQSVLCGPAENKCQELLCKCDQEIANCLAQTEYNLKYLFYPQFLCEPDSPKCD
In words: Negative charge of isolated human lipoproteins (agarose gel electrophoresis) after group X sPLA2. Type of assay: biochemical. The following applies: agent 10 μmol/L; LDL and HDL, 50 nmol/L sPLA2. How it is done: LDL and HDL were isolated from human plasma by ultracentrifugation (Havel, et al., J. Clin. Invest. 34, 1345-1353 (1955)). Human group IB, IIA and X sPLA2s (50 nmol/L) and CuSO4 (20 μmol/L) were reacted with LDL and HDL (1 mg/ml) at 37° C. for 3, 6, and 24 hours in a solution containing 12.5 mmol/L Tris-HCL buffer (pH 8.0), 125 mg/L bovine serum albumin, and 1 mmol/L calcium chloride. Then, a 1 μg sample of LDL and a 2 μg sample of HDL were electrophoresed on agarose gel (Helena Laboratories, TITAN GEL Lipoprotein; 90V, 25 minutes). After the electrophoresis, the gel was dried at 50 to 60° C. for about 1 hour, stained with 6 ml of a stain solution (Helena Laboratories, Fat Red 7B agarose solution) for about 3 minutes, and then decolorized with 25 ml of a decolorizing solution (70% methanol). In the experiment for determining the activity of a sPLA2 inhibitor (indoxam), a COX inhibitor (indomethacin) or a 5-LOX inhibitor (AA-861), those agents were added to the reaction giving a final concentration of 10 μmol/L, virtually simultaneously with the addition of sPLA2.

For assay [2], the target named is T1, human group X sPLA2. In words: Fatty acid release from isolated human lipoproteins induced by group X sPLA2. Conditions: agent 10 μmol/L, added with sPLA2; arachidonic acid from LDL (FIG. 2). Type of assay: biochemical. The method, then: LDL and HDL were isolated from human plasma by ultracentrifugation (Havel, et al., J. Clin. Invest. 34, 1345-1353 (1955)). Human group IB, IIA and X sPLA2s (0.5 nmol/L to 500 nmol/L) were reacted with LDL and HDL (0.35-1 mg/ml) at 37° C. in a solution containing 12.5 mmol/L Tris-HCL buffer (pH 8.0), 125 mg/L bovine serum albumin, and 1 mmol/L calcium chloride. The fatty acids released from the lipoproteins were extracted according to the method of Dole (Dole, et al., J. Biol. Chem. 235, 2595-2599 (1960)), and were labeled with 9-anthryldiazomethane by the known method (Hanasaki, et al., J. Biol. Chem. 274, 34203-34211 (1999)). Then, the released fatty acids were determined by detecting fluorescence of the labeled products (fatty acids) eluted from high performance liquid chromatography (HPLC) on reverse-phase column (LichroCART 125-4 Superspher 100 RP-18 columnmol/Merck). In order to examine does-dependent release of fatty acids induced by each sPLA2, the lipoprotein was reacted with 0.5, 5, 50, and 500 nmol/L group X sPLA2, and 50 and 500 nmol/L group IB and IIA sPLA2 for 60 minutes. Further, in order to examine time-dependent fatty acid release induced by sPLA2, each 50 nmol/L sPLA2 was used, and the change in the release with time course was traced during the period time of 4 hours after the sPLA2 addition. In the experiment for determining the inhibitory activity of a sPLA2 inhibitor (indoxam; Yokota, et al., Biochim. Biophys. Acta 1438, 213-222 (1999)), a cyclooxygenase (COX) inhibitor (indomethacin) or a 5-lipoxygenase (5-LOX) inhibitor (AA-861; 2,3,5-trimethyl-6-(12-hydroxy-5,10-dodecadiynyl)-1,4-benzoquinone (Yoshimoto, et al., Biochem. Biophys. Acta. 713, 470-473 (1982)), those agents were added to the reaction giving a final concentration of 10 μmol/L, virtually simultaneously with the addition of sPLA2.

In assay [3] the target is T2, human group V sPLA2 (Homo sapiens, UniProt P39877).
T2 construct: made in house; host or cells: CHO cells, stably transfected (pSVL vector); culture supernatant used
T2 sequence (P39877 21-138): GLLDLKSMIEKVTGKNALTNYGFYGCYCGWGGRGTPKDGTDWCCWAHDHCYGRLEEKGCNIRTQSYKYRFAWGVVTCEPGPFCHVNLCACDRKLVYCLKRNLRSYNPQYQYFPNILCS
In words: Chromogenic assay for inhibitory activity, group V sPLA2 inhibition tests. Type of assay: biochemical. The source says: (§1) A. Preparation of Cells Expressing Human Group V or X sPLA2 and Preparation of the Culture Supernatant Thereof
(§2) cDNA sequence encoding human group V or X sPLA2 (Chen et al., J. Biol. Chem, 1994, 269, 2365-2368; and Cupillard et al., J. Biol. Chem, 1997, 272, 15745-15752) was inserted in forward direction downstream the promoter of an expression vector for mammal cells, pSVL SV40 Late Promoter Expression Vector (Amersham Pharmacia Biotech). The expression vector was transfected into CHO host cells using a Lipofect AMINE regent (Gibco BRL) according to the instructions of the manufacturer to provide CHO cells stably expressing human group V or X sPLA2. The cells were incubated in a-MEM medium containing 10% fetal calf serum for 3 days, and the culture supernatant was used to determine the activity of the enzymes.
(§3) B. Assay for Inhibitory Activity
(§4) The following chromogenic assay is used to identify and evaluate inhibitors of group V or X sPLA2. The assay has been adapted for high volume screening using 96 well microtiter plates. A general description of this assay is found in the article, “Analysis of Human Synovial Fluid Phospholipase A2 on Short Chain Phosphatidylcholine-Mixed Micelles: Development of a Spectrophotometric Assay Suitable for a Microtiterplate Reader”, by Laure. J. Reynolds, Lori L. Hughes and Edward A Dennis, Analytical Biochemistry, 204, pp 190-197, 1992.
(§5) A test compound (or a solvent blank) was added according to the predetermined arrangement of the plate, and diheptanoyl thio PC (1 mM) was reacted with human group V or X sPLA2 in the presence of Triton X-100 (0.3 mM), 5,5′-dithiobis-(2-nitrobenzoic acid) (125 μM) in a Tris buffer (25mM, pH7.3), CaCl2 (10 mM), KCl (100 mM), bovine serum albumin. Absorbance at 405 nm is read to estimate the inhibitory activity.
(§6) The reaction with human group V sPLA2 was performed in 40 μl/well at 40° C. for 45 minutes, and the reaction with human group X sPLA2 was performed in 15 μl/well at 40° C. for 30 minutes.

For assay [4], the target named is T1, human group X sPLA2. In words: Chromogenic assay for inhibitory activity, group X sPLA2 inhibition tests. The class given is biochemical. Set-up: made in house; host or cells: CHO cells, stably transfected (pSVL vector); culture supernatant used.
From the text: as §1, §2, §3, §4, §5, §6

Assay [5] deals with mouse peritoneal macrophages. In words: Uptake of LDL into mouse peritoneal macrophages induced by group X sPLA2 (Oil Red O stain). The class given is cell-based. Conditions: agent 10 μmol/L; 0.2 mg/ml LDL, 50 nmol/L group X sPLA2, 48 hours. How it is done:
C57BL/6J mice (male, 8 weeks) were injected peritoneally with 2 ml of a 4% thioglycollate solution, and, 4 days later, the cells from the peritoneal fluids were harvested. The cells were plated on a chamber slide, and incubated for 2 hours in the presence of the serum-free medium (BIO […]: X-VIVO 15). Then, non-adherent cells were removed by the washing procedure to prepare peritoneal macrophages. The cells were added with 0.2 mg/ml LDL (Sigma) and 50 nmol/L group X PLA2, and incubated in the serum-free medium for 48 hours. Uptake of LDL into macrophages were confirmed by immobilizing the cells with 4% formaldehyde for 20 minutes, and then staining the lipids with an Oil Red O stain solution.

For assay [6], the target named is T2, human group V sPLA2. In words: Degeneration (negative charge, agarose gel electrophoresis) of isolated human lipoproteins by group V sPLA2. Conditions: agent 10 μmol/L; LDL and HDL, 50 nmol/L sPLA2. Type of assay: biochemical. How it is done: LDL and HDL were isolated from human plasma by ultracentrifugation (Havel, et al., J. Clin. Invest. 34, 1345-1353 (1955)). Human group IIA and V sPLA2s (50 nmol/L) were reacted with LDL and HDL (1 mg/ml) at 37° C. for 3, 6, and 24 hours in a solution containing 12.5 mmol/L Tris-HCL buffer (pH 8.0), 125 mg/L bovine serum albumin, and 1 mmol/L calcium chloride, and then 1 μg of the LDL and 2 μg of the HDL were spotted on an agarose gel (Helena Laboratories, TITAN GEL Lipoprotein), followed by being electrophoresed at 90V for 25 minutes. After the electrophoresis, the gels were dried at 50 to 60° C. for about one hour, stained with 6 ml of a stain solution (Helena Laboratories, Fat Red 7B agarose solution) for about three minutes, and then decolorized with 25 ml of a decolorizing solution (70% methanol).

The target of assay [7] is T2, human group V sPLA2. In words: Fatty acid (linoleic acid) release from isolated human lipoproteins induced by group V sPLA2. The class given is biochemical. The following applies: agent 10 μmol/L; from LDL (FIG. 8). How it is done: LDL and HDL were isolated from human plasma by ultracentrifugation (Havel, et al., J. Clin. Invest. 34, 1345-1353 (1955)). […] Biol. Chem. 235, 2595-2599 (1960)). The fatty acids were labeled with 9-anthryldiazomethane by the known method ([…], et al., J. Biol. Chem. 274, 34203-34211 (1999)), and then were determined by detecting fluorescence of the labeled products (fatty acids) eluted from high performance liquid chromatography (HPLC) on reverse-phase column (LichroCART 125-4 Superspher 100 RP-18 column, Merck).

[8] abbreviates: diheptanoyl thio PC 1 mM, 40° C., 45 minutes, absorbance at 405 nm, read-out: IC50 group V sPLA2 inhibition.
[9] abbreviates: diheptanoyl thio PC 1 mM, 40° C., 30 minutes, absorbance at 405 nm, read-out: IC50 group X sPLA2 inhibition.

Like-named read-outs stand apart in the source and are kept apart here.

On to `CC1=C(C)C(=O)C(CCCCC#CCCCC#CCO)=C(C)C1=O` [AA-861, 2,3,5-trimethyl-6-(12-hydroxy-5,10-dodecadiynyl)-1,4-benzoquinone], for which, in assay [1], the “Effect on lipoprotein degeneration (increase in negative charge) induced by group X sPLA2” value is “affected neither”. Moreover, the “Effect on fatty acid release induced by group X sPLA2” value in assay [2] is “affected neither”. One may read the IC50 as the concentration at which inhibition is half-maximal. For the molecule `CCc1c(C(=O)C(N)=O)c2c(OCC(=O)O)nc(C)cn2c1Cc1cccc(-c2ccccc2)c1` [Compound 1], in assay [3] (setting [8]), the half-inhibitory concentration (IC50) stood at 12 nM. In the case of `CCc1c(C(=O)C(N)=O)c2c(OCC(=O)O)nc(C)cn2c1Cc1ccccc1Cc1ccccc1` [Compound 2], the IC50 in assay [3] (setting [8]) is 13 nM. On the same count and under the same terms, next, `CCc1c(C(=O)C(N)=O)c2c(OCC(=O)O)nc(-c3ccccc3)cn2c1Cc1ccccc1` [Compound 3]: 5 nM. On the same count and under the same terms, to `NC(=O)C1=CCCc2c1c1c(OCC(=O)O)cccn1c2Cc1ccccc1` [Compound 7] belongs 2 nM.

`NC(=O)c1cccc2c1c1c(OCC(=O)O)cccc1n2CC1CCCCC1` [Compound 8]: the IC50 in assay [4] (setting [9]) and in assay [3] (setting [8]) was 3 nM in each case. Turning to `NC(=O)c1cccc2c1c1c(OCC(=O)O)cccc1n2Cc1cccc(Oc2ccccc2)c1` [Compound 9], the IC50 in assay [4] (setting [9]) was 13 nM; in assay [3] (setting [8]) it was 1 nM. On the same counts, the results for `NC(=O)c1cccc2c1c1c(OCC(=O)O)ccc(F)c1n2Cc1ccccc1` [Compound 10] are 12 nM and 7 nM. Consider `NC(=O)c1cccc2c1c1c(OCC(=O)O)cc(-c3ccco3)cc1n2Cc1ccccc1` [Compound 11], for which, in assay [3] (setting [8]), the IC50 came out at 2 nM. `CCc1c(C(=O)C(N)=O)c2c(OCC(=O)O)nc(C)cn2c1Cc1ccc(-c2ccccc2)cc1` [Compound 12]: in assay [4] (setting [9]), the IC50 came out at 16 nM. Still for that read-out and setting: next, `CCc1c(CC(N)=O)c2c(OCC(=O)O)nc(C)cn2c1Cc1ccc(F)cc1` [Compound 13]: 19 nM; `CCc1c(C(=O)C(N)=O)c2c(OCC(=O)O)nc(C)cn2c1Cc1ccccc1C1CCCC1` [Compound 14]: 9 nM; `CCCc1c(C(=O)C(N)=O)c2c(OCC(=O)O)nc(C)cn2c1Cc1ccc(F)cc1` [Compound 15]: 17 nM. For `CCc1c(C(=O)C(N)=O)c2c(OCC(=O)O)cccc2n1Cc1ccccc1-c1ccccc1` [Compound 19], the IC50 in assay [4] turned out to be 26 nM; in assay [3], 6 nM.

For the molecule `CCc1c(C(=O)C(N)=O)c2c(OCC(=O)O)nc(C)cn2c1Cc1ccccc1CC1CCCCC1` [Compound 20], the half-maximal inhibitory concentration (IC50) in assay [3] (setting [8]) was 11 nM. Still for that read-out and setting: next, `CCc1ccc(-c2ccccc2Cc2c(CC)c(C(=O)C(N)=O)c3c(OCC(=O)O)nc(C)cn23)s1` [Compound 21]: 5 nM; `CCc1c(C(=O)C(N)=O)c2c(OCC(=O)O)nc(C)cn2c1Cc1ccccc1-c1ccc(C)s1` [Compound 22]: 13 nM; `NC(=O)c1cccc2c1c1c(OCC(=O)O)cccc1n2Cc1ccccc1` [Compound 23]: 8 nM. As for `CC(Cc1ccc(O)c(O)c1)C(C)Cc1ccc(O)c(O)c1` (centres unmarked) [NDGA], the “Effect on group X sPLA2-induced uptake of LDL into the cells” value in assay [5] was “affected neither”.

For `COc1ccc2c(c1)c(CC(=O)O)c(C)n2C(=O)c1ccc(Cl)cc1` [indomethacin], the “Effect on lipoprotein degeneration induced by group V sPLA2” value in assay [6] was “not affected”. The “Effect on lipoprotein degeneration (increase in negative charge) induced by group X sPLA2” value in assay [1] was “affected neither”. In assay [7], the “Effect on linoleic acid release induced by group V sPLA2” value was “not affected”. Also, the “Effect on group X sPLA2-induced uptake of LDL into the cells” value in assay [5] is recorded as “affected neither”. For the same molecule, the “Effect on fatty acid release induced by group X sPLA2” value in assay [2] is on record as “affected neither”.
